Read-outs that look alike come from different tables or passages of the source.
Key:
DDR1 [1] = target: T1, DDR1 (Homo sapiens (Human), UniProt Q08345); experiment: DDR1 binding assay (LanthaScreen Europium Kinase Binding assay)
Method: (§1) DDR1 and DDR2 binding assays were performed using Life Technologies LanthaScreen™ Europium Kinase Binding assay. The compounds were incubated with 5 nM DDR1 (Carna Biosciences) or 5 nM DDR2 (Life Technologies) for 1 hour at room temperature in white 384-well OptiPlate (PerkinElmer), containing 20 nM or 10 nM Kinase Tracer 178 respectively and 2 nM Europium labelled anti-GST antibody (Life Technologies) in assay buffer (50 mM HEPES pH 7.5, 10 mM MgCl2, 1 mM EGTA and 0.01% BRIJ35).
(§2) The ratio of fluorescence emission 665 nm/615 nm after excitation at 340 nm was obtained using the Tecan Spark 20M plate reader. IC50 values were determined in GraphPad Prism 7.0 software, using 4 parameter model: log(inhibitor) vs. response. IC50 values were converted in Ki using the Cheng-Prusoff equation (Ki=IC50/(1+[Tracer]/Kd).

DDR2 = DDR2 (Homo sapiens (Human), UniProt Q16832); experiment: DDR2 binding assay (LanthaScreen Europium Kinase Binding assay)
Method: as §1, §2

DDR1 [2] = target: T1, DDR1; experiment: DDR1 cell based assay (PathHunter U2OS DDR1 assay); details: U2OS-DDR1 cells, Type II Collagen stimulation, potency class
Method: The inhibition of DDR1 receptor activation by compounds was evaluated by PathHunter® U2OS DDR1 assay (Eurofins DiscoverX), according to the manufacturer's instructions. Briefly, U2OS-DDR1 cells were seeded in white 384-well plates at a density of 5000 cells/well and incubated for 2 hours at 37° C. and 5% CO2. Cells were then treated with compounds at different concentrations and incubated for 30 minutes, before stimulation with bovine Type II Collagen 20 μg/ml and incubation overnight at 37° C. and 5% CO2. PathHunter Detection Reagents were prepared according to the protocol provided by DiscoverX and 20 μl/well of this mix were added to each well. After incubating the plates for 1 hour at room temperature in the dark, luminescence signal was acquired with a plate reader. Raw data were normalized to vehicle control (0% for normalization) and positive control (100% for normalization; cells treated with 20 μg/ml collagen II) and IC50 parameters were calculated in GraphPad Prism 8.0 software, using sigmoidal dose-response curve fitting with variable slope.

[3] = potency class, read-out: Ki DDR1
[4] = potency class, read-out: Ki DDR2

Chain of DDR2 (Q16832 22-855): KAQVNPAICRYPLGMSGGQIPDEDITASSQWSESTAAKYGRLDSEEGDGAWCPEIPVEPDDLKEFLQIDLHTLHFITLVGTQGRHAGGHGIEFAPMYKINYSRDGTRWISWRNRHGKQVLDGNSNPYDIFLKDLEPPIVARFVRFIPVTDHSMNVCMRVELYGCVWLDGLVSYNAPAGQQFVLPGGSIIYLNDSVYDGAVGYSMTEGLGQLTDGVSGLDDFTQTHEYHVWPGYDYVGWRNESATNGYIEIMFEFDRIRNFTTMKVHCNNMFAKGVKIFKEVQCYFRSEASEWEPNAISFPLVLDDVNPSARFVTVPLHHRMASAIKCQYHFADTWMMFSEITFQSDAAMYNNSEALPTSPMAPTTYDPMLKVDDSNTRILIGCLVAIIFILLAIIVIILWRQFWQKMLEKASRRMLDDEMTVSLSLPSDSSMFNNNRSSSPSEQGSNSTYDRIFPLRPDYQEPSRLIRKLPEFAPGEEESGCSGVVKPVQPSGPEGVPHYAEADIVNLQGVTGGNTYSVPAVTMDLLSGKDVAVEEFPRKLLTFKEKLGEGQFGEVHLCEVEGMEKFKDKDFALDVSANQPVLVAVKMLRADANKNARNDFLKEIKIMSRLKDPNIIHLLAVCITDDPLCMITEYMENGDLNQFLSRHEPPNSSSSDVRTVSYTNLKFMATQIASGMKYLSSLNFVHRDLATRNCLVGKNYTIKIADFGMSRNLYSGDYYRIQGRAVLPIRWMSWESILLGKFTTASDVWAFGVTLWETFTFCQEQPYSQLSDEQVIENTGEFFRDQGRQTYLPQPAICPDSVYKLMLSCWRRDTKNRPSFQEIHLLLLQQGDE
T1 sequence (Q08345 19-913): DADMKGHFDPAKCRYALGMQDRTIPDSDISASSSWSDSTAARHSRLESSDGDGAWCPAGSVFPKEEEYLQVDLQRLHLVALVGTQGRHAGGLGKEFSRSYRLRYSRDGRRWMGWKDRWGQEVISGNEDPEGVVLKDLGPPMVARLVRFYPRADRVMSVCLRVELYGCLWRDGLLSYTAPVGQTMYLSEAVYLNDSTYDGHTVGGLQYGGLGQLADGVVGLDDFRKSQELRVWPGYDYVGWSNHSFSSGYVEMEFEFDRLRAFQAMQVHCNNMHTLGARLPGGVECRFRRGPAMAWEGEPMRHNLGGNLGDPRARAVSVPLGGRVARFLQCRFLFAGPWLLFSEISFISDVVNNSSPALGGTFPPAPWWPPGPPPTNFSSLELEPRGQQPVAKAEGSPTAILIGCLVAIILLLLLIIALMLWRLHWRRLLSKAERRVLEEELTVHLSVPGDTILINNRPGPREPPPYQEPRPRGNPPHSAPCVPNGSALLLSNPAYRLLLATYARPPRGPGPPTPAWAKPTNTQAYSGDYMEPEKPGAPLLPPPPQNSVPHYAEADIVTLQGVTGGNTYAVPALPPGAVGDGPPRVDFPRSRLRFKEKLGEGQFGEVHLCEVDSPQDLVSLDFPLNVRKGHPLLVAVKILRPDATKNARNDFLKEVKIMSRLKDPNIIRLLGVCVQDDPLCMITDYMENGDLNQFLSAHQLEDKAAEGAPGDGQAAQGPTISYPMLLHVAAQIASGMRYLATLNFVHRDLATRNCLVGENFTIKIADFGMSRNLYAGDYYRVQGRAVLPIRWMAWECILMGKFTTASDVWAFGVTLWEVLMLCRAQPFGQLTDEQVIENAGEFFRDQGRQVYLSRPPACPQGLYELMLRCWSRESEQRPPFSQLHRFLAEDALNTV

| Compound | Ki (DDR1 [1]; [3]) [nM] | Ki (DDR2; [4]) [nM] | IC50 (DDR1 [2]) [nM] | Ki (DDR1 [1]; read-out: DDR1 Ki) [nM] | Ki (DDR2; read-out: DDR2 Ki) [nM] |
| --- | --- | --- | --- | --- | --- |
| CN1CCN(c2cncc(CN3CCc4c(C(=O)Nc5cccc(C(F)(F)F)c5)csc4C3)c2)CC1=O [Example 29, 6-((5-(4-methyl-3-oxopiperazin-1-yl)pyridin-3-yl)methyl)-N-(3-(trifluoromethyl)phenyl)-4,5,6,7-tetrahydrothieno[2,3-c]pyridine-3-carboxamide] | < 25 | < 25 | 50 to 80 | – | – |
| O=C(Nc1cc(F)cc(OC(F)F)c1)c1csc2c1CCN(Cc1cncnc1)C2 [Example 12, N-(3-(difluoromethoxy)-5-fluorophenyl)-6-(pyrimidin-5-ylmethyl)-4,5,6,7-tetrahydrothieno[2,3-c]pyridine-3-carboxamide] | < 25 | < 25 | 25 to 50 | – | – |
| COCC(=O)Nc1ccncc1CN1CCc2c(C(=O)Nc3cccc(C(F)(F)F)c3)csc2C1 [Example 17, 6-((4-(2-methoxyacetamido)pyridin-3-yl)methyl)-N-(3-(trifluoromethyl)phenyl)-4,5,6,7-tetrahydrothieno[2,3-c]pyridine-3-carboxamide] | < 25 | 25 to 50 | 25 to 50 | – | – |
| O=C(Nc1cccc(OC(F)F)c1)c1csc2c1CCN(Cc1cncnc1)C2 [Example 13, N-(3-(difluoromethoxy)phenyl)-6-(pyrimidin-5-ylmethyl)-4,5,6,7-tetrahydrothieno[2,3-c]pyridine-3-carboxamide] | < 25 | < 25 | 50 to 80 | – | – |
| Cn1nc(C(C)(C)C)cc1NC(=O)c1csc2c1CCN(Cc1nccnc1N)C2 [Example 15, 6-((3-aminopyrazin-2-yl)methyl)-N-(3-(tert-butyl)-1-methyl-1H-pyrazol-5-yl)-4,5,6,7-tetrahydrothieno[2,3-c]pyridine-3-carboxamide] | < 25 | < 25 | 25 to 50 | – | – |
| CN1CCN(Cc2cc(NC(=O)c3csc4c3CCN(c3cncnc3)C4)cc(C(F)(F)F)c2)CC1 [Example C1, N-(3-((4-methylpiperazin-1-yl)methyl)-5-(trifluoromethyl)phenyl)-6-(pyrimidin-5-yl)-4,5,6,7-tetrahydrothieno[2,3-c]pyridine-3-carboxamide] | – | – | – | 238 | 172 |
| Cc1cn(-c2cc(NC(=O)c3cc4c(s3)CN(c3cncnc3)CC4)cc(C(F)(F)F)c2)cn1 [Example C2] | – | – | – | 29000 | 50000 |

The remaining lines, values ahead:

| Ki (DDR1 [1]; [3]) [nM] | Ki (DDR2; [4]) [nM] | IC50 (DDR1 [2]) [nM] | Ki (DDR1 [1]; read-out: DDR1 Ki) [nM] | Ki (DDR2; read-out: DDR2 Ki) [nM] | Compound |
| --- | --- | --- | --- | --- | --- |
| < 25 | < 25 | < 25 | – | – | Nc1nccnc1CN1CCc2c(C(=O)Nc3cncc(C(F)(F)F)c3)csc2C1 [Example 36, 6-((3-aminopyrazin-2-yl)methyl)-N-(5-(trifluoromethyl)pyridin-3-yl)-4,5,6,7-tetrahydrothieno[2,3-c]pyridine-3-carboxamide] |
| < 25 | < 25 | 25 to 50 | – | – | O=C(Nc1cccc(C(F)(F)F)c1)c1csc2c1CCN(Cc1cccnc1)C2 [Example 25, 6-(pyridin-3-ylmethyl)-N-(3-(trifluoromethyl)phenyl)-4,5,6,7-tetrahydrothieno[2,3-c]pyridine-3-carboxamide] |
| < 25 | < 25 | 50 to 80 | – | – | Cc1nc(N)ncc1CN1CCc2c(C(=O)Nc3cc(F)cc(C(F)(F)F)c3)csc2C1 [Example 47, 6-((2-amino-4-methylpyrimidin-5-yl)methyl)-N-(3-fluoro-5-(trifluoromethyl)phenyl)-4,5,6,7-tetrahydrothieno[2,3-c]pyridine-3-carboxamide] |
| < 25 | < 25 | < 25 | – | – | O=C(Nc1cc(F)cc(OC(F)(F)F)c1)c1csc2c1CCN(Cc1cncnc1)C2 [Example 7, N-(3-fluoro-5-(trifluoromethoxy)phenyl)-6-(pyrimidin-5-ylmethyl)-4,5,6,7-tetrahydrothieno[2,3-c]pyridine-3-carboxamide] |
